Tests used:
[1] = Diffusion through a lipoidal membrane barrier (trans-cellular absorption); type: physicochemical; details: laceryl alcohol/caprytic acid lipid membrane
Method: The diffusion rates of the Compound of Example 3 and the active compound, 4-[3-[2-dimethylamino)ethyl]-1H-indol-5-ylmethyl]-2-oxazolidinone, through a lipoidal membrane barrier (laceryl alcohol/caprytic acid lipid membrane) were determined and compared.

[2] = Plasma concentrations in rats after intravenous administration; type: in vivo, rat
Method: (§1) Investigations were carried out in rats to determine whether 4-[1-Acetyl-3-[2-(dimethylamino)ethyl]indol-5-ylmethyl]oxazolidin-2-one acetate (compound of Example 6) acts as a prodrug for the pharmacologically active compound 4-[3-[2-(dimethylamino)ethyl]-1H-indol-5-ylmethyl]-2-oxazolidinone described in EP-A-0486666. The compound of Example 6 was incubated with rat plasma at a concentration of approx. 0.2 μg/ml for up to 4 h. At selected times the incubations were terminated by addition of acetone and the concentrations of both 4-[1-Acetyl-3-[2-(dimethylamino)ethyl]indol-5-ylmethyl]oxazolidin-2-one acetate and its breakdown product 4-[3-[2-(dimethylamino)ethyl]-1H-indol-5-ylmethyl]-2-oxazolidinone were determined by HPLC assay. In addition rats were administered 4-[1-Acetyl-3-[2-(dimethylamino)ethyl]indol-5-ylmethyl]oxazolidin-2-one acetate intravenously at a dose of 4 mg/kg and the plasma and brain concentrations of this compound and the breakdown product, 4-[3-[2-(Dimethylamino)ethyl]-1H-indol-5-ylmethyl]- 2-oxazolidinone were determined up to 8 h after administration.
After intravenous administration, the peak plasma concentration (Cmax) of 4-[1-acetyl-3-[2-(dimethylamino)ethyl]indol-5-ylmethyl]oxazolidin-2-one acetate was approx 0.2 μg/ml (5 min) and this parent compound was detectable up to 1 h post dose (limit of detection 0.02 μg/ml); the plasma half-life was approximately 0.2 h. The breakdown product, 4-[3-[2-(dimethylamino) ethyl]-1H-indol-5-ylmethyl]-2-oxazolidinone was also detected in the plasma (Cmax 0.3 μg/ml, 5 min) up to 4 h after dosage.

[3] = Incubation with rat hepatocytes (conversion to active compound); type: in vitro ADME
Method: The compound of Example 3 was incubated with rat hepalocytes to determine whether the active compound, 4-[3-[2-(dimethylamino)ethyl]-1H-indol-5-ylmethyl]-2-oxazolidinone, is a main product of its metabolism.

[4] = Incubation of compound with rat plasma, HPLC assay of parent and breakdown product; type: in vitro ADME
Method: as §1
4-[1-Acetyl-3-[2-(dimethylamino)ethyl]indol-5-ylmethyl]oxazolidin-2-one acetate was converted to 4-[3-[2-(Dimethylamino)ethyl]-1H-indol-5-ylmethyl]-2-oxazolidinone in rat plasma, with a half-life of approximately 3 h. After 4 h incubation only 30% of the parent compound of example 6 remained.

| breakdown product detected in plasma up to, after dosage ([2]; rat, in vivo, iv, 4 mg/kg) | SMILES | Diffusion Rate [1] [cm/min/1000] | melting point [°C] | conversion into the active compound [3] | compound remaining ([3]; after 30 minutes incubation) | half-life at 0.2 μg/ml ([4]; rat plasma incubation, approx. 0.2 μg/ml, up to 4 h, read-out: half-life of conversion to 4-[3-[2-(Dimethylamino)ethyl]-1H-indol-5-ylmethyl]-2-oxazolidinone in rat plasma (converted)) [h] | parent compound remaining ([4]; rat plasma, after 4 h incubation) [%] | half-life ([2]; in vivo, rat, intravenous, 4 mg/kg) [h] | Cmax ([2]; in vivo, rat, intravenous, 4 mg/kg, read-out: peak plasma concentration (Cmax) of parent compound) [ng/mL] | parent compound detectable in plasma up to, post dose ([2]; rat, intravenous, 4 mg/kg, limit of detection 0.02 μg/ml) | conversion into active compound in rats ([2]; rats, plasma incubation and intravenous experiments) |
| --- | --- | --- | --- | --- | --- | --- | --- | --- | --- | --- | --- |
| up to 4 h | CN(C)CCc1c[nH]c2ccc(CC3COC(=O)N3)cc12 (stereo not drawn) [Active compound, 4-[3-[2-(dimethylamino)ethyl]-1H-indol-5-ylmethyl]-2-oxazolidinone, reference compound] | 0.68 |  |  |  |  |  |  |  |  |  |
|  | CC(=O)O.Cc1ccccc1C(=O)n1cc(CCN(C)C)c2cc(CC3COC(=O)N3)ccc21 (stereo not drawn) [Example 3, 4-[1-(2-toluoyl)-3-[2-(dimethylamino)ethyl]indol-5-ylmethyl]oxazolidin-2-one acetate] | 3.88 | 51.5 to 54 | extensively and rapidly converted into the active compound | no compound of Example 3 remained |  |  |  |  |  |  |
|  | CC(=O)O.CC(=O)n1cc(CCN(C)C)c2cc(CC3COC(=O)N3)ccc21 (stereo not drawn) [Example 6, 4-[1-Acetyl-3-[2-(dimethylamino)ethyl]indol-5-ylmethyl]oxazolidin-2-one acetate] |  |  |  |  | ~3 | 30 | ~0.2 | ~200 | up to 1 h | is converted into 4-[3-[2-(dimethylamino)ethyl]-1H-indol-5-ylmethyl]-2-oxazolidinone in rats |

Reference: patent US6423731B1, “Indole derivatives as prodrugs of 5-HT1-like receptor agonists” (Zeneca Limited, priority 1994, dated 2002)
